Values joined by “and” are separate entries in the source; they are usually repeats but may differ in a detail not shown here. Equal entries are not always repeated.
How the values were obtained:
[1] = 12-month aging of topical cream, isothiocyanate concentration by HPLC; type: physicochemical; conditions: Table 11 cream; for isothiocyanate concentration in cream, 4 months: aged 4 months; for isothiocyanate concentration in cream, 8 months: aged 8 months; for isothiocyanate concentration in cream, 12 months: aged 12 months; for isothiocyanate concentration in cream, Original: time 0
Description: To determine the effects of aging of the topical cream formulations on the potency of the included bioactives, a study was performed as described in Table 12. Shown is a 12-month aging of the orthomolecular transdermal formulation as described in Table 11. Bio-encapsulation of the isothiocyanates, such as cyclodextrin R-sulforaphane, is not commonly available, and can suffer instability depending on the cream base used. Since topical formulations are applied to the skin, consideration of noxious volatile sulfur emissions and dermal irritation, especially from broccoli, wasabi, and mustard extracts, limit their amount and source. Table 12 illustrates that stabilization of orthomolecular ingredients such as isothiocyanates can be accomplished in a topical formulation.

[2] = system: mice; conditions: mouse, in vivo; cited from earlier work
[3] = system: oxazolone-induced ear edema in BALB/c mice; assay: Oxazolone-induced murine ear edema, second formalized study; type: in vivo; conditions: for reduction / inhibition of oxazolone-induced ear edema: as stated in running text per treatment group; for Change in Ear Weight, Mean: group mean, 8 mice, acetone vehicle 74.6; for Left Ear weight / Right Ear weight / ΔWt., change in mouse ear weight: individual mice, 24 h after oxazolone challenge; for % Inhibition of change in ear weight: vs acetone vehicle group
Description: The present example assesses the anti-inflammatory activity of a topically applied formulation in accordance with one aspect of the present invention in a prophylactic and therapeutic model of ear edema in BALB/c mice. […] Louis, Mo., USA) to 20 mL acetone (Acros Organics, Cat. 42324-0010, lot B4522107, Thermo Fisher Scientific, Princeton, N.J., USA). The mixture was gently heated until a bright yellow color. 52 BALB/c mice (Harlan Sprague-Dawley, Inc., Indianapolis, Ind., USA, male, 6-7 weeks old) were received, individually examined and housed in six cages of eight mice each and one cage containing four mice. No clinical signs of disease or distress were observed. The mice were placed in quarantine with daily inspections. […] The mixture was gently heated until a bright yellow color. […] This equated to 0.336 mg of cream per ear. 0.6 mg betamethasone-21-valerate (Sigma Chem., Cat. […] PZ0008, lot 020M47044) was suspended in […] dH2O (1 mg/mL) for Group 4. […] Twenty-four hours after oxazolone challenge, the mice were euthanized, and the ears were removed and weighed.

[4] = in topical formulations; cited from earlier work
[5] = system: breast cancer; conditions: women living at least one year after breast cancer diagnosis; cited from earlier work
[6] = system: ear edema; conditions: cited from earlier work

C[S+]([O-])CCCCCCN=C=S (centres unmarked) [6 MITC, 6-(methylsulfinyl)hexyl isothiocyanate]
isothiocyanate concentration in cream, 4 months [1]: 0.341 Mg/gm
isothiocyanate concentration in cream, 8 months [1]: 0.614 Mg/gm
isothiocyanate concentration in cream, 12 months [1]: 0.571 Mg/gm
isothiocyanate concentration in cream, Original [1]: 0.123 Mg/gm

COc1cc(/C=C/C(=O)CC(=O)/C=C/c2ccc(O)c(OC)c2)ccc1O [Curcumin]
Oral LD50 [2]: > 2 g/kg body weight

C[S@+]([O-])CCCCN=C=S [L-Sulforaphane]
isothiocyanate concentration in cream, 4 months [1]: 0.358 Mg/gm
isothiocyanate concentration in cream, 8 months [1]: 1.105 Mg/gm
isothiocyanate concentration in cream, 12 months [1]: 1.841 Mg/gm
isothiocyanate concentration in cream, Original [1]: 0.606 Mg/gm

Cc1ccc(-c2cc(C(F)(F)F)nn2-c2ccc(S(N)(=O)=O)cc2)cc1 [Oral Celecoxib, celecoxib]
reduction / inhibition of oxazolone-induced ear edema [3]: 37%
Change in Ear Weight, Mean [3]: 46.7 mg
Left Ear weight [3]: 27.52 mg and 25.00 mg and 22.00 mg and 27.84 mg and 30.30 mg and 26.29 mg and 23.89 mg and 23.84 mg
Right Ear weight [3]: 79.55 mg and 68.55 mg (2×) and 72.46 mg and 81.00 mg and 75.32 mg and 72.39 mg and 62.48 mg
ΔWt., change in mouse ear weight [3]: 52.03 mg and 43.55 mg and 46.55 mg and 44.62 mg and 50.70 mg and 49.03 mg and 48.50 mg and 38.64 mg
% Inhibition of change in ear weight [3]: 37%

C[S+]([O-])CCCCN=C=S (centres unmarked) [Sulforaphane]
time to decline to a zero level [4]: 30 days

C[S@@+]([O-])C=CCCN=C=S [Sulforaphene, 4-isothiocyanato-(1R)-(methylsulphinyl)-1-(E)-butene]
isothiocyanate concentration in cream, 4 months [1]: 1.729 Mg/gm
isothiocyanate concentration in cream, 8 months [1]: 0.308 Mg/gm
isothiocyanate concentration in cream, 12 months [1]: 0.233 Mg/gm
isothiocyanate concentration in cream, Original [1]: 0.551 Mg/gm

CC(=O)Oc1ccccc1C(=O)O [aspirin]
decrease in distant recurrence and breast cancer death [5]: ~50%

COc1ccc2c(c1)c(CC(=O)O)c(C)n2C(=O)c1ccc(Cl)cc1 [indomethacin]
inhibition / reduction of edema reported by studies of individual topical components ([6]; research grade trans-resveratrol, indomethacin 0.5 mg/ear): 45%

Oc1ccc(/C=C/c2cc(O)cc(O)c2)cc1 [trans-resveratrol, 3,5,4′-trihydroxy-trans-stilbene]
inhibition of edema ([6]; commercially-purified, at similar concentration to that of the topical formulation): 35%

betamethasone-21-valerate [Topical Betamethasone]
reduction / inhibition of oxazolone-induced ear edema [3]: 69%
Change in Ear Weight, Mean [3]: 23.7 mg
Left Ear weight [3]: 22.10 mg and 23.20 mg and 24.56 mg and 20.44 mg and 21.26 mg and 22.60 mg (2×) and 25.74 mg
Right Ear weight [3]: 48.00 mg and 45.52 mg and 48.66 mg and 47.03 mg and 41.34 mg and 45.70 mg and 49.51 mg and 46.30 mg
ΔWt., change in mouse ear weight [3]: 25.90 mg and 22.32 mg and 24.10 mg and 26.59 mg and 20.08 mg and 23.10 mg and 26.91 mg and 20.56 mg
% Inhibition of change in ear weight [3]: 68%

Source: patent US9610258B2, “Methods of stabilizing the extracellular matrix and compositions therefor” (priority 2011, dated 2017)
